How the values were obtained:
placental stem cells [1] = assay: Differentiation into cardiomyocytes (RT-PCR); type: cell-based, human; settings: 1 mM, day 14 versus day 0, RT-PCR
Method: Placental stem cells (PSCs) were cultured in the presence of L-Ascorbic acid 2-phosphate (1 mM) for 14 days. Total RNA was extracted on day 0 and day 14 and used for RT-PCR analysis. Cardiomyocyte specific genes primers were designed specifically for cardiac transcription factor GATA-4, atrial myosin light chain type 2 (MLC-2A), ventricular myosin light chain type 2 (MLC-2V), human atrial natriuretic peptide (hANP), and cardiac troponin T (cTnT). The PCR reaction conditions were 45 cycles/57° C. annealing temperature. The PCR products were size fractioned by 2.5% agarose gel electrophoresis.

placental stem cells [2] = assay: Differentiation into neural cells; type: cell-based, human
Method: […] Immunohistochemical analysis of the expression of the different genes was conducted with antibodies specific to the human proteins.

CYP1A1/2 = assay: EROD assay (ethoxyresorufin-o-deethylase); type: cell-based; settings: prior exposure 50 uM; human hepatocytes and hepatocytes derived from PSCs
Method: Human hepatocytes were cultured using the conditions of Strom et al. Methods in Enzymology 272:388-401 (1996).
An EROD assay which measures the conversion of ethoxy-resorufin to hydroxyresorufin was used to detect expression of CYP1A1 or CYP1A2 in human hepatocytes and hepatocytes derived from placental stem cells (Kelley et al. J. Biomolecular Screening 5:249-253 (2000). CYP1A activity in these cells was induced by exposing the hepatocytes to beta-naphthoflavone (50 uM).

placental stem cells [3] = assay: Differentiation into pancreatic cells (RT-PCR); type: cell-based, human; settings: on Matrigel, 14 days
Method: Placental stem cells were maintained in standard growth media for 7 days and then trypsinized and seeded on cultures previously coated with matrigel (MG), a commercially available form of basement membrane proteins. Cultures were coated with 20% (v/v; matrigel to media) or 100% matrigel with essentially identical results. […] After 10-14 days the cells were lysed and RNA was isolated, and reverse transcriptase-PCR analysis was conducted with PCR primers specific for Pax 6, PDX-1 Nkx2.2, insulin, glucagon and an internal control, beta-actin.

placental stem cells [4] = test system: placental stem cells
Method: The cells were cultured for either 7-10 days or until the cultures grew to confluence. The cells were trypsinized and reseeded in 6 well plates. The cells were subjected to different culture conditions, having varying growth factors supplementing the DMEM or MEM based medium. […] Placental stem cells were cultured for an additional 14 days. At the end of 14 days, the cells were evaluated for the expression of human albumin, CYP3A4, A1AT, or C/EBP-alpha.

O=C1O[C@H]([C@@H](O)CO)C(O)=C1OP(=O)(O)O [L-Ascorbic acid 2-phosphate]
expression of MLC-2A and MLC-2V genes (placental stem cells [1]): significantly up-regulated

CC1=C(/C=C/C(C)=C/C=C/C(C)=C/C(=O)O)C(C)(C)CCC1 [all trans retinoic acid, all-trans retinoic acid]
expression of GFAP, beta-tubulin III and CNP (placental stem cells [2]; immunofluorescence, FIG. 9A): express
expression of nestin and glutamic acid decarboxylase (GAD) (placental stem cells [2]; over 7 days of culture, FIG. 9B): increase

O=c1cc(-c2ccccc2)oc2ccc3ccccc3c12 [beta-naphthoflavone (BNF), beta-naphthoflavone]
effect on EROD activity (CYP1A1/2): induced

NC(=O)c1cccnc1 [nicotinamide]
expression of pancreatic markers (insulin, glucagon, PDX-1, Pax6, Nkx2.2) (placental stem cells [3]): express insulin and glucagon

FGF 2: fibroblast growth factor 2, media supplement
liver specific gene expression (albumin, CYP3A4, A1AT, C/EBP-alpha) (placental stem cells [4]): did not enhance liver specific gene expression

hepatocyte growth factor (HGF): hepatocyte growth factor, media supplement
liver specific gene expression (albumin, CYP3A4, A1AT, C/EBP-alpha) (placental stem cells [4]): did not enhance liver specific gene expression

Reference: patent publication US20040161419A1, “Placental stem cells and uses thereof” (priority 2002, published 2004)
